Results from US20150266920A1, “MACROCYCLIC KETOAMIDE IMMUNOPROTEASOME INHIBITORS” (HOFF-MANN-LA ROCHE INC., priority 2012, published 2015).

Columns and labels:
β 1i = molecular target: T1, β 1i (Homo sapiens, UniProt P28065+P40306); test: Cell-Based Proteasome Activity/Selectivity Assay, Ramos cells, substrate (PAL)2Rh110; conditions: β1i substrate (PAL)2Rh110
T1 construct: protease activity associated with the proteasome complex in cultured cells; endogenous in cells; host or cells: Ramos cells
Source text: (§1) Cell-Based Proteasome Activity/Selectivity Assay
(§2) The Cell-Based Proteasome subunit activity/selectivity assay was a panel of 5 fluorogenic assays that independently measured the activity of β5c or β 5i (chymotrypsin-like activity), β2c/2i (trypsin-like), and β 1c or β 1i (caspase-like) protease activity associated with the proteasome complex in cultured cells. Specifically, the following substrates were used for respective subunit activities: β 1i: (PAL)2Rh110, β 1c: (LLE)2 Rh110, β2c/2i: (KQL)2Rh110, β 5c: (WLA)2Rh110, β 5i: (ANW)2Rh110. The following procedure was followed:
(§3) Cell preparation: Plated 25 μl of Ramos cells (2×10^6/ml in DPBS) into half area plate (PerkinElmer Cat 6005569) to final 5×10^4 cells/well. Added 0.5 μl of 100×4-fold serial diluted test compounds or DMSO to each well. Highest concentration of compound tested was 20 thus compound serial dilution started from […]. Incubated for 30 minutes at 37° C. Then equilibrated at room temperature for 15 minutes. Added 25 μl of 2× reaction mix consisting of 0.025% digitonin, 20 μM of each substrates and 0.5M sucrose in DPBS. Shaked for one minute @ 700 rpm. Incubated for […] at room temperature. Then read the plates with an Envision multilabel plate reader (PerkinElmer) with 500 nm excitation/519 nm emission.

β2c/2i = test: Cell-Based Proteasome Activity/Selectivity Assay, Ramos cells, substrate (KQL)2Rh110; conditions: β2c/2i substrate (KQL)2Rh110
Source text: as §1, §2, §3

β 1c = molecular target: T2, β 1c (Homo sapiens, UniProt P28072+Q99436); test: Cell-Based Proteasome Activity/Selectivity Assay, Ramos cells, substrate (LLE)2 Rh110; conditions: β1c substrate (LLE)2 Rh110
T2 construct: protease activity associated with the proteasome complex in cultured cells; endogenous in cells; host or cells: Ramos cells
Source text: as §1, §2, §3

IP 10 level = test: PBMC IP-10 Assay; format: cell-based; conditions: Homo sapiens, PBMCs stimulated with CpG Type A, assay not named in the column head
Procedure: PBMCs were isolated from whole blood as follows: Blood was collected in a sterile environment in heparinized tubes. Blood was diluted with an equal volume PBS/2% FCS and 30 ml of this mixture was added to ACCUSPIN tubes containing 15 ml Histopaque-1077 already centrifuged at 800 g for 30 seconds and warmed up at room temperature. The tubes were then centrifuged at 800 g for 20 minutes at room temperature with no brake. The mononuclear band, just above the polyethylene frit, was removed by Pasteur pipet. These mononuclear cells were washed three times with sterile PBS, counted, and resuspended in RPMI 1640 supplemented with 10% heat inactivated fetal calf serum, 10 mM HEPES, 1 mM sodium pyruvate, penicillin (50 U/ml), streptomycin (50 μg/ml) and glutamine (2 mM) to approximately 1.5×10^6/ml. […] PBMC viability of cells remaining in the well was measured with ATPlite luminescence assay (Perkin-Elmer) per the manufacturer's instructions. Luminescence was measured on the Perkin-Elmer Envision, using the luminescence filter. IP 10 level was measured with CXCL10/IP10 AlphaLISA kit (Perkin-Elmer) per the manufacturer's instructions, except halving all volumes. Fluorescence was measured on the Envision Multilabel plate reader, using the AlphaScreen standard settings.

β 5c = molecular target: T3, β 5c (Homo sapiens, UniProt P20618+P28074); test: Cell-Based Proteasome Activity/Selectivity Assay, Ramos cells, substrate (WLA)2Rh110; conditions: β5c substrate (WLA)2Rh110
T3 construct: protease activity associated with the proteasome complex in cultured cells; endogenous in cells; host or cells: Ramos cells
Source text: as §1, §2, §3

β 5i = molecular target: T4, β 5i (Homo sapiens, UniProt P20618+P28062); test: Cell-Based Proteasome Activity/Selectivity Assay, Ramos cells, substrate (ANW)2Rh110; conditions: β5i substrate (ANW)2Rh110, read-out: Ic50 ramos: ac-(anw)2-r110
T4 construct: protease activity associated with the proteasome complex in cultured cells; endogenous in cells; host or cells: Ramos cells
Source text: as §1, §2, §3

LMP7 [1] = molecular target: T5, LMP7 (Mus musculus, UniProt O09061+P28063); conditions: mouse CAIA and CIA arthritis models; cited from earlier work
LMP7 [2] = molecular target: T5, LMP7; conditions: MRL/lpr lupus-prone mice; cited from earlier work
LMP7 [3] = molecular target: T5, LMP7; conditions: DSS-induced colitis model in mice; cited from earlier work

Row | SMILES | IC50 (β 1i) [nM] | IC50 (β2c/2i) [nM] | IC50 (β 1c) [nM] | EC50 (IP 10 level) [nM] | IC50 (β 5c) [nM] | IC50 (β 5i) [nM] | disease score (LMP7 [1]) | disease progression (LMP7 [2]) | plasma cells numbers and levels of anti-dsDNA IgG (LMP7 [2]) | inflammation and tissue destruction (LMP7 [3])
1 | C[C@@H]1NC(=O)CCc2cccc(c2)-c2cccc(c2)CC[C@@H](C(=O)N[C@@H](Cc2ccccc2)C(=O)C(=O)NCc2ccccc2)NC1=O [Example 1, (9S,12S)-12-Methyl-11,14-dioxo-10,13-diaza-tricyclo[15.3.1.1^2,6]docosa-1(20),2(22),3,5,17(21),18-hexaene-9-carboxylic acid ((S)-1-benzyl-2-benzylcarbamoyl-2-oxo-ethyl)-amide] | 1970 | > 20000 | > 20000 | 347 | 353 | 19 |  |  |  | 
2 | COc1ccc(C[C@H](NC(=O)[C@H](C)NC(=O)CN2CCOCC2)C(=O)N[C@@H](Cc2ccccc2)C(=O)[C@@]2(C)CO2)cc1 [PR-957] |  |  |  |  |  |  | significantly decrease disease score | prevented disease progression | reduced plasma cells numbers and levels of anti-dsDNA IgG | reduced inflammation and tissue destruction
